Source: US6706740B2, “Fungicidal heterocyclic aromatic amides and their compositions, methods of use and preparation” (Dow AgroSciences LLC, priority 1999, dated 2004)
Like-named read-outs stand apart in the source and are kept apart here.

Assays:
[1] = test system: Stagonospora nodorum (Leptosphaeria nodorum—LEPTNO); experiment: In vitro fungal growth inhibition, Stagonospora nodorum (LEPTNO); format: cell-based; conditions: Leptosphaeria, read-out: LEPTNO in vitro Growth Inhibition
Septoria tritici—SEPTTR = experiment: Leaf Blotch of Wheat, in vivo whole plant, 24 Hour Protectant; conditions: Zymoseptoria tritici, 24 h, read-out: SEPTTR in vivo 1 Day Protectant
Erysiphe graminis—ERYSGT = experiment: Powdery Mildew of Wheat, in vivo whole plant, 24 Hour Protectant; conditions: Erysiphe, read-out: ERYSGT in vivo 1 Day Protectant
[2] = test system: Rhizoctonia solani (RHIZSO); experiment: microbe, parasite or virus in culture; format: cell-based; conditions: Rhizoctonia solani, read-out: RHIZSO in vitro Growth Inhibition
[3] = test system: Mycosphaerella graminicola (Septoria tritici—SEPTTR); experiment: In vitro fungal growth inhibition, Mycosphaerella graminicola (SEPTTR); format: cell-based; conditions: Zymoseptoria tritici, read-out: SEPTTR in vitro Growth Inhibition
[4] = test system: Puccinia recondita—PUCCRT; experiment: Brown Rust of Wheat, in vivo whole plant, 24 Hour Protectant; conditions: for pest or weed control at 100 ppm: Puccinia, read-out: PUCCRT in vivo 1 Day Protectant
[5] = test system: Phytophthora infestans (PHYTIN); experiment: microbe, parasite or virus in culture; format: cell-based; conditions: Phytophthora infestans, read-out: PHYTIN in vitro Growth Inhibition
[6] = test system: Magnaporthe grisea (Pyricularia oryzae—PYRIOR); experiment: microbe, parasite or virus in culture; format: cell-based; conditions: Pyricularia oryzae, read-out: PYRIOR in vitro Growth Inhibition
[7] = test system: Leptosphaeria nodorum—LEPTNO; experiment: Glume Blotch of Wheat, in vivo whole plant, 24 Hour Protectant; conditions: for pest or weed control at 100 ppm: Leptosphaeria, read-out: LEPTNO in vivo 1 Day Protectant
[8] = test system: Phytophthora infestans—PHYTIN; experiment: whole plant or invertebrate; format: in vivo; conditions: for pest or weed control at 100 ppm: Phytophthora, in Solanum lycopersicum, 24 h, read-out: PHYTIN in vivo 1 Day Protectant
Ustilago maydis (USTIMA) = experiment: microbe, parasite or virus in culture; format: cell-based; conditions: Mycosarcoma maydis, read-out: USTIMA in vitro Growth Inhibition
[9] = 100 ppm spray, 24 hour protectant, wheat, control of fungal infection vs untreated plants

Compound | inhibition at 25 ppm ([1]; 25 ppm in growth medium) [%] | pest or weed control at 100 ppm (Septoria tritici—SEPTTR; [9]) [%] | pest or weed control at 100 ppm (Erysiphe graminis—ERYSGT; [9]) [%] | melting point | inhibition at 25 ppm [2] [%] | inhibition at 25 ppm ([3]; 25 ppm in growth medium) [%] | pest or weed control at 100 ppm [4, 9] [%] | inhibition at 25 ppm [5] [%] | inhibition at 25 ppm [6] [%] | pest or weed control at 100 ppm [7, 9] [%] | pest or weed control at 100 ppm [8] [%] | inhibition at 25 ppm (Ustilago maydis (USTIMA)) [%] | other results
Cc1ccnc(C(=O)NC2CC(C)(C)CC(C)(C)C2)c1O [Compound 236] | > 80 | < 25 | < 25 | 42 to 45 °C | < 80 | < 80 | < 25 | < 80 | < 80 | < 25 | < 25 | < 80 | –
Cc1ccnc(C(=O)NC2COC(=O)[C@H](Cc3ccccc3)[C@@H](OC(=O)C(C)C)[C@H](C)OC2=O)c1O (stereo partly drawn) [Compound 237] | < 80 | 25 to 74 | < 25 | 122 to 134 °C | < 80 | < 80 | – | < 80 | < 80 | 25 to 74 | < 25 | < 80 | PUCCRT in vivo 1 Day Protectant [4, 9]: + +
Cc1ccnc(C(=O)Nc2ccc(Oc3cccc(C(F)(F)F)c3)cc2)c1O [Compound 238] | < 80 | < 25 | < 25 | 105 to 107 °C | < 80 | < 80 | < 25 | < 80 | < 80 | 25 to 74 | < 25 | < 80 | –
COc1ccnc(C(=O)NC(C)c2ccc(Cl)cc2)c1O (stereo not drawn) [Compound 246] | < 80 | 25 to 74 | 25 to 74 | 140 to 142 °C | < 80 | < 80 | < 25 | < 80 | < 80 | – | < 25 | < 80 | LEPTNO in vivo 1 Day Protectant [7, 9]: + +
COc1ccnc(C(=O)NC2CC(C)(C)CC(C)(C)C2)c1O [Compound 250] | > 80 | < 25 | < 25 | 104 to 106 °C | < 80 | < 80 | 25 to 74 | > 80 | < 80 | 25 to 74 | 25 to 74 | < 80 | –
COc1ccnc(C(=O)NC2CC(C)(C)CC(C)(C(=O)c3ccccc3)C2)c1O (stereo not drawn) [Compound 260] | > 80 | 25 to 74 | < 25 | 147 to 149 °C | < 80 | < 80 | < 25 | < 80 | < 80 | 25 to 74 | < 25 | < 80 | –
COc1ccnc(C(=O)N[C@@H]2CC(C)(C)C[C@](C)(C(=O)N(C)CCc3ccccc3)C2)c1O [Compound 262] | < 80 | 25 to 74 | < 25 | 59 to 60 °C | < 80 | < 80 | < 25 | < 80 | < 80 | 25 to 74 | < 25 | < 80 | –
COc1ccnc(C(=O)NC2CC(C)(C)C(OC(=O)c3ccccc3)C(C)(C)C2)c1O (stereo not drawn) [Compound 268] | > 80 | 25 to 74 | < 25 | 175 to 200 °C | < 80 | < 80 | 25 to 74 | > 80 | < 80 | 25 to 74 | < 25 | < 80 | –
COc1ccnc(C(=O)NC2CC(C)(C)C(OC(=O)c3cccc(Cl)n3)C(C)(C)C2)c1O (stereo not drawn) [Compound 269] | < 80 | 25 to 74 | < 25 | 55 to 65 °C | < 80 | < 80 | 25 to 74 | < 80 | < 80 | < 25 | < 25 | < 80 | –
COc1ccnc(C(=O)N[C@H]2CC[C@H](Oc3ccc(C(F)(F)F)cc3)CC2)c1O [Compound 270] | > 80 | 25 to 74 | 25 to 74 | 168 to 172 °C (dec.) | > 80 | > 80 | 25 to 74 | < 80 | > 80 | – | 25 to 74 | > 80 | LEPTNO in vivo 1 Day Protectant [7, 9]: + +
COc1ccnc(C(=O)N[C@H]2CC[C@@H](Oc3ccc(C(F)(F)F)cc3)CC2)c1O [Compound 271] | > 80 | 25 to 74 | < 25 | 181 to 183 °C (dec.) | > 80 | > 80 | < 25 | > 80 | > 80 | 25 to 74 | 25 to 74 | > 80 | –
COc1ccnc(C(=O)N[C@@H]2CCCC[C@H]2SC)c1O [Compound 273] | < 80 | 25 to 74 | < 25 | 113 to 115 °C | < 80 | < 80 | < 25 | < 80 | < 80 | 25 to 74 | < 25 | < 80 | –
COc1ccnc(C(=O)NC2c3ccccc3CC2(C)C)c1O (stereo not drawn) [Compound 284] | < 80 | 25 to 74 | < 25 | 122 to 128 °C | < 80 | < 80 | 25 to 74 | < 80 | < 80 | 25 to 74 | < 25 | < 80 | –
COc1ccnc(C(=O)NC2CCc3ccccc3C2=O)c1O (stereo not drawn) [Compound 285] | < 80 | 25 to 74 | < 25 | 174 to 179 °C | > 80 | < 80 | < 25 | < 80 | < 80 | 25 to 74 | < 25 | < 80 | –
COc1ccnc(C(=O)N[C@H]2C(O)[C@@H]3CC[C@H]2[C@@H]2CCCC[C@@H]23)c1O (stereo partly drawn) [Compound 293] | < 80 | 25 to 74 | < 25 | 143 to 160 °C (dec.) | < 80 | < 80 | < 25 | < 80 | < 80 | 25 to 74 | < 25 | < 80 | –
COc1ccnc(C(=O)NC2CCN(Cc3ccccc3)CC2)c1O.O=C(O)/C=C\C(=O)O [Compound 305] | – | – | – | 145 to 147 °C | < 80 | – | – | < 80 | < 80 | – | – | < 80 | inhibition at 25 ppm [1]: < 80%; pest or weed control at 100 ppm (Septoria tritici—SEPTTR): < 25%; pest or weed control at 100 ppm (Erysiphe graminis—ERYSGT; 24 h): < 25%; inhibition at 25 ppm [3]: < 80%; pest or weed control at 100 ppm ([4]; 24 h): < 25%; pest or weed control at 100 ppm ([7]; 24 h): < 25%; PHYTIN in vivo 1 Day Protectant ([8]; 100 ppm spray, 24 hour protectant, tomato, control of fungal infection vs untreated plants): + +
